For data set [1], the system named is pain induced by tooth pulp stimulation. It is filed as in vivo, New Zealand white rabbits.
For data set [2] the test system is unchanged. The arrangement: species or system rabbits. Particulars: rabbit, in vivo; read-out: EC50 value and 95% confidence interval for dental local analgesia.
The subject of data set [3] is rabbits. Particulars: rabbit, in vivo.
The test system of data set [4] is rabbits. To be noted: rabbit, in vivo. This is another data set of the same source.
Data set [5] relates to rabbits. Particulars: rabbit, in vivo. This is another data set of the same source.
Another data set relates to tooth pain. Particulars: background statement, patients; cited from earlier work.

“And” between values parts separate entries of the source, which are not always exact repeats. Identical values can stand only once. Like-named read-outs stand apart in the source and are kept apart here.

This is an account of results in patent publication US6599906B1, “Method of local anesthesia and analgesia” (priority 2000, dated 2003).

A word on the EC50: it is the concentration that produces a half-maximal response.

Consider `NC1=N[C@H](O)[C@H]2[C@H]3O[C@]4(O)O[C@@H]([C@@H](O)[C@@]2(N1)[C@@H]4O)[C@]3(O)CO` [tetrodotoxin, Tetrodotoxin], for which, in data set [1] (rabbit, in vivo), the “onset of the effect of TTX increasing the threshold voltage” value amounted to 5 min and the “time at which peak of effect on threshold voltage was reached” value was 1 h. Also, the EC50 in data set [2] amounted to 1.04 ± 0.03 mM. The “rabbits manifesting increased excretion in the respiratory tract” value in the data set on rabbits [3] is recorded as 4 out of 10. In the data set on rabbits [4], the “RR (respiratory rate)” value was 99 ± 11 and 102 ± 2 and 102 ± 6 and 91 ± 10 and 94 ± 12 and 99 ± 5; the “effect on ECG, in words” value is “did not suggest any significant effect”; the “effect on heart rate or respiratory rate, in words” value is on record as “did not significantly modify the heart rate or respiratory rate”. In the data set on rabbits [5], the ALP was 69 ± 17 U/L and 71 ± 23 U/L; the ALT was 67 ± 43 U/L and 53 ± 19 U/L; the BUN is 8.4 ± 0.9 mmol/L and 8.5 ± 1.7 mmol/L; the CO2 in serum is 26.4 ± 1.2 mmol/L and 30.0 ± 2.5 mmol/L. Further, in the data set on rabbits [5], the “Ca^2+ in serum” value was 3.26 ± 0.18 mmol/L and 3.34 ± 0.12 mmol/L; the Cre is 109 ± 12 µmol/L and 99 ± 6 µmol/L; the GTP is 5.2 ± 1.3 U/L and 5.7 ± 2.1 U/L; the HCT is 38.5 ± 3.4% and 33.6 ± 1.9%. Besides, in the data set on rabbits [5], the HGB was 12.4 ± 1.0 g/dL and 11.3 ± 0.6 g/dL; the IP is 1.66 ± 0.23 mmol/L and 1.46 ± 0.40 mmol/L; the “K^+ in serum” value is 3.8 ± 0.3 mmol/L and 3.8 ± 0.1 mmol/L; the LAP was 109 ± 11 µmol/L and 108 ± 10 µmol/L. In the data set with rabbits [5], the MCH is 22.2 ± 1.4 pg and 22.5 ± 1.1 pg; the MCHC was 32.4 ± 1.3 g/dL and 33.6 ± 0.6 g/dL; the MCV is 68.5 ± 2.8 fL and 66.9 ± 2.1 fL; the “Na^+ in serum” value is 141.1 ± 1.1 mmol/L and 141.7 ± 1.8 mmol/L. Further, in the data set on rabbits [5], the PLT is 141 ± 120 ×10^3/μl and 159 ± 37 ×10^3/μl; the TBA is 13.5 ± 12.0 U/L and 14.5 ± 9.2 U/L; the TP was 60 ± 6 g/L and 57 ± 6 g/L; the WBC was 4.2 ± 1.2 ×10^3/μl and 6.6 ± 2.4 ×10^3/μl. For the same molecule, the “effect on the blood cellular or biochemical parameters, in words” value with rabbits [5] is recorded as “did not have any significant effect”.
As for `CCCCNc1ccc(C(=O)OCCN(C)C)cc1` [tetracaine], the “Percentage change in pain-inducing threshold voltage” value (“Percentage change” below) in data set [1] (1% tetracaine (equal to 33 mM), 20 μL to tooth pulp cavity, 10 min) stood at 27 ± 30%; in data set [1] (1% tetracaine (equal to 33 mM), 20 μL to tooth pulp cavity, 20 min), 32 ± 38%; in data set [1] (1% tetracaine (equal to 33 mM), 20 μL to tooth pulp cavity, 30 min) it was 29 ± 31%; in data set [1] (1% tetracaine (equal to 33 mM), 20 μL to tooth pulp cavity, 40 min), 32 ± 22%; in data set [1] (1% tetracaine (equal to 33 mM), 20 μL to tooth pulp cavity, 50 min), 22 ± 15%; in data set [1] (1% tetracaine (equal to 33 mM), 20 μL to tooth pulp cavity, 60 min), 16 ± 18%. In addition, the “Percentage change” value worked out at 27 ± 30% in data set [1] (Table 7, 1% tetracaine, 20 μL to tooth pulp cavity, 15 min) and 32 ± 22% in data set [1] (Table 7, 1% tetracaine, 20 μL to tooth pulp cavity, 45 min). In data set [1] (rabbit, in vivo), the “effect on the threshold voltage compared to the solvent control, in words” value is “markedly increased the threshold voltage”. Besides, the “period of partial pain relief as topical anesthetic for tooth pain” value with tooth pain is listed as “about 1 hour”.
As for `CCN(CC)CC(=O)Nc1c(C)cccc1C` [lidocaine], in data set [1] (rabbit, in vivo), the “Percentage change” value is 30 ± 29% and 28 ± 36% and 26 ± 30% and 20 ± 32% and 24 ± 32% and 17 ± 21%; the “effect on the threshold voltage compared to the solvent control, in words” value is “markedly increased the threshold voltage”; the “synergistic activity with TTX, in words” value is recorded as “did not show a similar synergistic activity”.
With `CCN(CC)CCOC(=O)c1ccc(N)cc1` [procaine], the “Percentage change” value in data set [1] (2% anesthetic, 20 μL to tooth pulp cavity, 10 min) was −2 ± 20%; in data set [1] (2% anesthetic, 20 μL to tooth pulp cavity, 20 min) it was −2 ± 20%; in data set [1] (2% anesthetic, 20 μL to tooth pulp cavity, 30 min), −4 ± 23%; in data set [1] (2% anesthetic, 20 μL to tooth pulp cavity, 40 min), −3 ± 22%; in data set [1] (2% anesthetic, 20 μL to tooth pulp cavity, 50 min) it was −2 ± 28%; in data set [1] (2% anesthetic, 20 μL to tooth pulp cavity, 60 min) it was −1 ± 26%. Besides, the “effect on the threshold voltage compared to the solvent control, in words” value in data set [1] (rabbit, in vivo) is reported as “no clear effect on the threshold voltage”. Besides, the “period of partial pain relief as topical anesthetic for tooth pain” value in the data set on tooth pain is reported as “about 1 hour”.
